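Dose response: 5 concentrations. Exposure: 48 h. Format: 96-well plates. Endpoint: linear interpolation; highest concentration if not reached. The concentration for 50% growth inhibition is given as GI50. Definition used: TGI = concentration required for complete inhibition of growth.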

Test in all cases: inhibition of tumour cell growth, NCI panel, 48 h
The subject of assay [1] is 786-0 renal.
In assay [2] the test system is A549 NSCLC.
In assay [3] the test system is CCRF-CEM leukemia.
In assay [4] the test system is HCT-116 colon.
Assay [5] deals with HOP-62 NSCLC.
For assay [6], the system named is HS 578T breast.
The test system of assay [7] is SF-268 CNS.
For assay [8], the system named is SK-MEL-5 melanoma.
The subject of assay [9] is T-47D breast.
The subject of assay [10] is UACC-257 melanoma.

For the compound `COC(=O)Nc1nc2ccc(S(=O)c3ccccc3)cc2[nH]1` (configuration not stated), the GI50 in assay [1] is 5.2 µM; in assay [2], 5.48 µM; in assay [3], 5.16 µM; in assay [4] it was 3.5 µM; in [5] it was 3.64 µM; in assay [6] it was 19.6 µM. Besides, the GI50 in assay [7] is more than 100 µM; in [8] it was 2.83 µM; in assay [9], 4.38 µM; in assay [10] it was more than 100 µM. In addition, the TGI in assay [1], in [2], in assay [3], in assay [4], in assay [5] and in [6] was more than 100 µM each time. Also, the TGI in assay [7], in [8], in assay [9] and in [10] was more than 100 µM throughout.
As to `O=C(CN1CCN(c2cc3c(cc2F)c(=O)c(C(=O)N/N=C/c2ccccc2O)cn3C2CC2)CC1)N/N=C\c1ccccc1O`, the GI50 in [1] is 1.12 µM; in assay [2], 0.569 µM; in assay [3] it was 0.167 µM; in [4], 0.443 µM; in [5] it was 0.408 µM; in assay [6], 8.57 µM. Further, the GI50 in assay [7] was 0.474 µM; in [8] it was 0.876 µM; in assay [9], 0.796 µM; in assay [10] it was 0.912 µM. Besides, the TGI in assay [1], in assay [2], in [3], in assay [4], in assay [5] and in assay [6] was more than 100 µM throughout. The TGI in assay [7] is more than 100 µM; in assay [8], 2.95 µM; in assay [9], more than 100 µM; in assay [10] it was more than 100 µM.
For `O=c1n(CC2CO2)c(=O)n(CC2CO2)n1CC1CO1` (configuration not stated), the GI50 was 4.78 µM in [1]; 5.9 µM in assay [2]; 3.27 µM in assay [3]; 18.9 µM in [4]; 4.7 µM in assay [5]; more than 100 µM in assay [6]. Moreover, the GI50 in assay [7] is 15.7 µM; in [8], 14.7 µM; in [9] it was 6.64 µM; in assay [10], 13 µM. Besides, the TGI in assay [1] is more than 83.2 µM; in assay [2], more than 72 µM; in assay [3], more than 80.2 µM; in assay [4] it was more than 100 µM; in assay [5], more than 35.5 µM; in assay [6] it was more than 100 µM. Moreover, the TGI in [7] was more than 100 µM; in assay [8], more than 79.9 µM; in assay [9], more than 100 µM; in assay [10] it was 95.6 µM.
With `CN(C)c1ccc(-c2cc(-c3ccc(Nc4nc(Nc5ccc(Cl)cc5)nc(Nc5ccc(Cl)cc5)n4)cc3)no2)cc1`, the GI50 in assay [1] is 1.51 µM; in [2], 5.12 µM; in assay [3] it was 2.34 µM; in assay [4], 2.84 µM; in assay [5], 4.8 µM; in assay [6], 3.97 µM. For the same compound, the GI50 is 5.02 µM in [7], 2.07 µM in assay [8], 3.69 µM in [9] and 9.28 µM in assay [10]. The TGI was 3.66 µM in [1]; 27.5 µM in assay [2]; 6.47 µM in assay [3]; 11.8 µM in [4]; 24.1 µM in [5]; more than 100 µM in assay [6]. In addition, the TGI in assay [7] turned out to be 21.6 µM; in [8] it was 9.07 µM; in assay [9], 78.5 µM; in [10], 68.3 µM.
Regarding `Fc1ccc(Nc2ncnc3ccc(-c4cnc5[nH]ccc5c4)cc23)cc1Cl`, the GI50 in assay [1] was 1.57 µM; in [2] it was 1.79 µM; in assay [3], 7.83 µM; in assay [4], 1.77 µM; in [5], 3.54 µM; in assay [6], 2.66 µM. Further, the GI50 in assay [7] is 3.47 µM; in assay [8], 6.88 µM; in assay [9] it was 0.592 µM; in assay [10], 13.5 µM. Besides, the TGI in [1] is 3.27 µM; in assay [2] it was 5.33 µM; in assay [3] it was more than 100 µM; in assay [4], 3.63 µM; in assay [5], 15.6 µM; in [6], more than 45.9 µM. Also, the TGI was more than 73.4 µM in assay [7], 40.3 µM in [8], 13.9 µM in [9] and more than 100 µM in [10].
As for `c1cc2c(cc1NC1=NCCO1)CCC2`, the TGI in assay [1], in assay [2], in assay [3], in assay [4], in [5] and in [6] was more than 10 µM each time. The TGI in assay [7], in [8] and in assay [9] was more than 10 µM throughout.
`NC(CSC(c1ccccc1)(c1ccccc1)c1ccc2c(c1)OCO2)C(=O)O` (configuration not stated): the GI50 was 2.96 µM in assay [1]; 0.635 µM in assay [2]; 0.306 µM in assay [3]; 0.358 µM in assay [4]; 1.64 µM in assay [5]; 0.392 µM in assay [6]. Besides, the GI50 was 0.82 µM in assay [7], 0.365 µM in assay [8], 0.597 µM in assay [9] and 2.52 µM in assay [10]. Besides, the TGI is more than 89.4 µM in [1]; more than 100 µM in [2]; more than 41.5 µM in assay [3]; 29.6 µM in [4]; more than 100 µM in [5]; 24.6 µM in [6]. Moreover, the TGI was more than 77.6 µM in assay [7], 5.01 µM in assay [8], more than 67.9 µM in assay [9] and more than 100 µM in assay [10].
Consider `O=C1/C(=C/c2ccc([N+](=O)[O-])cc2)COc2ccc(O)c(O)c21`, for which the GI50 in assay [1] was 1.35 µM; in assay [2], 2.04 µM; in assay [4], 1.57 µM; in assay [5] it was 2.57 µM; in assay [6], 1.94 µM; in assay [7], 1.51 µM. For the same compound, the GI50 is 2.12 µM in [8], 1.32 µM in [9] and 1.89 µM in [10]. Moreover, the TGI stood at 3.59 µM in assay [1]; 5.17 µM in [2]; 3.35 µM in assay [4]; 6.34 µM in [5]; 4.75 µM in assay [6]; 3.15 µM in assay [7]. Moreover, the TGI in assay [8] was 4.61 µM; in assay [9] it was 3.65 µM; in assay [10], 4.32 µM.

The values are drawn from PubChem BioAssay (NCI).
